# Square brackets hold non-standard residues; d marks the D form. Peptide text beside a SMILES is read from it. * marks the point of attachment. Dolaproine = CO[C@@H]([C@@H]1CCCN1)[C@@H](C)C(=O)O; Dil = CC[C@H](C)[C@H](NC)[C@@H](CC(=O)O)OC; X1 = C[C@@H](N*)[C@@H](O)c1ccccc1; NMeV = CN[C@H](C(=O)O)C(C)C
# How the values were obtained:
# OE19 cells [1] = experiment: Alamar blue cell viability, OE19 cells; assay type: cell-based, human; conditions: HER2+ OE19; 72–96 h
# CAL-27 cells [2] = tested on: CAL-27 cells
# Experimental: (§1) Alamar Blue (resazurin) was added to the cells and allowed to incubate for 2–4 h at 37 °C. Plates were analysed using a plate reader with fluorescence measured at 560 nm.
# HCT116 cells [3] = conditions: read-out: IC50 (cell viability); HER2- HCT116; 72–96 h
# Experimental: as §1
# NCI N87 cells = conditions: read-out: IC50 (cell viability); HER2+ NCI N87 (gastric cancer); 72–96 h
# Experimental: as §1
# OE19 cells [4] = experiment: Neutral comet assay after IR, OE19 cells; assay type: cell-based, human
# Experimental: (§2) Cells were collected 15 min post IR, suspended in agarose gel and lysed per assay directions (Trevigen). Samples underwent electrophoresis under neutral conditions and were then stained with Sybr Green. Comet tails were counted in multiple fields (>60 cells per sample) and analysed using CometScore (TriTek Corp). Comet tail length was normalized to vehicle-treated, non-irradiated cells.
# [5] = tested on: HER2+ and HER2− cell lines; experiment: Neutral comet assay after IR, HER2+ and HER2− cell lines; assay type: cell-based, human; conditions: 20 nM overnight, 2 Gy
# Experimental: as §2
# OE19 cells [6] = experiment: Cell cycle profile (propidium iodide, flow cytometry), OE19 cells; assay type: cell-based, human; conditions: overnight treatment
# Experimental: (§3) Cells were treated with RNAse, stained with propidium iodide (PI) and analysed by FACS using FloJo software.
# HCT116 cells [7] = experiment: Cell cycle profile (propidium iodide, flow cytometry), HCT116 cells; assay type: cell-based, human; conditions: overnight treatment
# Experimental: as §3
# OE19 tumour xenografts = experiment: OE19 tumour xenograft growth with or without IR; assay type: in vivo, mice; conditions: for Tumour doubling time in days (mean, 95% CI): OE19 (HER2+)
# Experimental: (§4) CAL-27, OE19, NCI N87 and HCT116 tumour xenografts were established and tumour growth was measured with digital calipers. Tumour volume was measured blindly to treatment group and calculated using the formula as ½ × length × width^2. Mice were randomized into groups once the average tumour volume reached >100 mm^3. Mice were assigned to indicated groups in ‘Results'. […] For irradiated mice, the tumour-bearing hindlimbs were focally irradiated while the remainder of the mouse was shielded from IR with custom designed lead blocking >95% of the dose as verified by dosimeters placed on the mouse. […] To prevent unnecessary morbidity, mice were killed if tumour length exceeded 15 mm per protocol. Nonlinear regression least squares fit was used to calculate tumour volume doubling times. […] To minimize the number of mice used, tumours were grown in the bilateral flanks.
# [8] = tested on: NCI N87 tumour xenografts; experiment: NCI N87 tumour xenograft growth with or without IR; assay type: in vivo, mice; conditions: for Tumour doubling time in days (mean, 95% CI): NCI N87 (HER2+)
# Experimental: as §4
# HCT116 tumour xenografts = experiment: HCT116 tumour xenograft growth with or without IR; assay type: in vivo, mice; conditions: for Tumour doubling time in days (mean, 95% CI): HCT116 (HER2−)
# Experimental: as §4
# OE19 tumours = experiment: Immunohistochemistry of OE19 tumour xenografts (pS10 Histone H3, cleaved caspase 3); assay type: in vivo, mice; conditions: tumours harvested 48 h after drug
# Experimental: Tissue sections were cut from blocks of formalin-fixed paraffin embedded xenografts. Four micron thick tissue sections were stained with antibodies to phospho-histone H3 (pH3, Abcam, catalogue number ab32107) and cleaved caspase-3 (ClC3, Cell Signaling Technology, catalogue number 9661) and used at dilutions of 1:300 and 1:900, respectively. Slides were stained on a Ventana Discovery Ultra (Ventana Medical Systems, Tucson, AZ, USA). Antigen retrieval was performed using CC1 for 24–40 min at 95 °C. The primary antibodies were incubated on the sections for 1 h at 37 °C. Primary antibodies were visualized used DAB as a chromagen using the UltraMap system (Ventana Medical systems) followed by hematoxylin as a counterstain. Slides were rinsed, dehydrated through alcohol and xylene and coverslipped.
# Immunostained slides were scanned using an Axio Scan.Z1 (Zeiss; Oberkochen, Germany). […] Whole-slide images were imported into Definiens Software for quantitative analysis (Definiens; Munich, Germany). […] For analysis of pH3 (a nuclear stain), the total number of nuclei and the total number of nuclei showing DAB staining (pH3 positive cells) were recorded within each ROI. The percent of positive nuclei was then calculated for each sample. For analysis of ClC3 (a cytoplasmic stain), mean DAB chromagen intensity was measured and calculated within the ROI for each sample.
# [9] = tested on: cell lines irrespective of HER2 expression; experiment: Alamar blue cell viability, cell lines irrespective of HER2 expression; assay type: cell-based, human; conditions: fairly consistent across cell lines irrespective of HER2 expression; 72–96 h
# CAL-27 cells [10] = experiment: Clonogenic cell survival (SF2), CAL-27 cells; assay type: cell-based, human; conditions: compared with vehicle
# Experimental: Following IR, cells were counted, re-plated at varying cell numbers in drug-free media. […] Surviving fraction at 2 Gy (SF2) was calculated as the fraction of cells surviving 2 Gy compared with non-irradiated cells.
# HCT116 cells [11] = experiment: Clonogenic cell survival (SF2), HCT116 cells; assay type: cell-based, human; conditions: 5 nM overnight then 2 Gy, compared with vehicle
# Experimental: Following IR, cells were counted, re-plated at varying cell numbers in drug-free media. 10–14 days after initial seeding formed colonies were methanol fixed, stained with crystal violet and counted. Surviving fraction at 2 Gy (SF2) was calculated as the fraction of cells surviving 2 Gy compared with non-irradiated cells.
# CALU3 cells = experiment: Neutral comet assay after IR, CALU3 cells; assay type: cell-based, human; conditions: 2 nM overnight, 6 Gy, compared with vehicle or 20 nM antibody
# Experimental: as §2
# CAL-27 cells [12] = experiment: Cell cycle profile (propidium iodide, flow cytometry), CAL-27 cells; assay type: cell-based, human; conditions: overnight treatment
# Experimental: as §3
# CAL-27 tumour xenografts = experiment: CAL-27 tumour xenograft growth with or without IR; assay type: in vivo, mice; conditions: Fig 4f, 0.5 nmol cetuximab or C-MMAE, 2 nmol free MMAE on day 0
# Experimental: as §4
# [13] = set-up: method as in PMID 25681274; conditions: cited from earlier work
# [14] = 0.25 nmol (∼1.9 mg kg^−1) day 0, 2.5 Gy days 1, 2 and 3
# [15] = 0.25 nmol T-DM1 i.v. day 0, +IR 2.5 Gy on days 1, 2 and 3, extrapolated
compound,measurement,setting,value
ado-trastuzumab emtansine [T-DM1],IC50,OE19 cells [1],< 1 nM
same,IC50,"CAL-27 cells [2]; read-out: IC50 (cell viability), HER2- CAL-27, 72–96 h",> 100 nM
same,IC50,HCT116 cells [3],> 100 nM
same,IC50,NCI N87 cells,< 1 nM
same,radiosensitization (comet tail length),"OE19 cells [4]; 2 nM T-DM1, irradiated OE19 (HER2+)",radiosensitized
same,"radiosensitization (IR induced DNA double-strand breaks, comet tail length)",[5],restricted radiosensitization of HER2+ cells
same,cell cycle profile (G2/M),OE19 cells [6],blocked OE19 cells in G2/M
same,cell cycle profile (G2/M),HCT116 cells [7],resembled vehicle-treated cells
same,tumour regression with T-DM1 and IR,OE19 tumour xenografts; [14],significantly prolonged tumour regression
same,"Tumour doubling time in days (mean, 95% CI)",OE19 tumour xenografts; [15],66 (33+) days
same,"Tumour doubling time in days (mean, 95% CI)","OE19 tumour xenografts; 0.25 nmol i.v. day 0, no IR",11 (8–17) days
same,slowing of tumour growth compared with control or trastuzumab,"OE19 tumour xenografts; single dose of 1 nmol, by day 14",equally efficacious in slowing tumour growth
same,tumour regression with T-DM1 and IR,[8]; [14],significantly prolonged tumour regression
same,"Tumour doubling time in days (mean, 95% CI)",[8]; [15],113 (82–179) days
same,"Tumour doubling time in days (mean, 95% CI)","[8]; 0.25 nmol i.v. day 0, no IR",23 (21–25) days
same,"Tumour doubling time in days (mean, 95% CI)","HCT116 tumour xenografts; 0.25 nmol i.v. day 0, +IR 2.5 Gy on days 1, 2 and 3",7 (5–12) days
same,"Tumour doubling time in days (mean, 95% CI)","HCT116 tumour xenografts; 0.25 nmol i.v. day 0, no IR",3 (2–5) days
same,benefit of adding T-DM1 to IR,"HCT116 tumour xenografts; HER2- HCT116, 0.25 nmol day 0, 2.5 Gy days 1, 2 and 3",no benefit of adding T-DM1 to IR
same,cells in G2/M in tumours (pS10 Histone H3 IHC),OE19 tumours,increased the number of cells in radiosensitive G2/M phase
CC(=O)O[C@H]1C(=O)[C@@]2(C)[C@H]([C@H](OC(=O)c3ccccc3)[C@]3(O)C[C@H](OC(=O)[C@H](O)[C@@H](NC(=O)c4ccccc4)c4ccccc4)C(C)=C1C3(C)C)[C@]1(OC(C)=O)CO[C@@H]1C[C@@H]2O [paclitaxel],"cytotoxic potency, paclitaxel compared with T-DM1","CAL-27 cells [2]; HER2- CAL-27 cells, 96 hours",more potent than T-DM1
COc1cc2cc(c1Cl)N(C)C(=O)C[C@H](OC(=O)[C@H](C)N(C)C(=O)CCS)[C@]1(C)O[C@H]1[C@H](C)[C@@H]1C[C@@](O)(NC(=O)O1)[C@H](OC)/C=C/C=C(\C)C2 [mertansine],IC50,[9],~10 nM
same,"radiosensitization (IR induced DNA double-strand breaks, comet tail length)",[5],radiosensitized by increasing IR induced DNA double-strand breaks in both HER2+ and HER2− cell lines
same,surviving fraction following 2 Gy (SF2),CAL-27 cells [10]; 5 nM mertansine overnight then 2 Gy,decreased further
same,surviving fraction following 2 Gy (SF2),HCT116 cells [11],decreased further
same,cell cycle profile (G2/M),OE19 cells [6],increased the accumulation
same,cell cycle profile (G2/M),HCT116 cells [7],increased the accumulation
"CC[C@H](C)[C@@H]([C@@H](CC(=O)N1CCC[C@H]1[C@H](OC)[C@@H](C)C(=O)N[C@H](C)[C@@H](O)c1ccccc1)OC)N(C)C(=O)[C@@H](NC(=O)[C@@H](NC)C(C)C)C(C)C [MMAE, monomethyl auristatin E] (H-[NMeV]V[Dil][Dolaproine]-X1)",effect on IR induced comet tail length,CALU3 cells,increased comet tail length to a similar degree
same,effect on IR induced comet tail length,"OE19 cells [4]; 2 nM overnight, 6 Gy, compared with vehicle, 20 nM antibody or 2 nM C-MMAE",further increased comet tail length
same,surviving fraction following 2 Gy (SF2),CAL-27 cells [10]; drug overnight then 2 Gy,decreased
same,cell cycle profile (G2/M),OE19 cells [6],accumulating in G2/M
same,cell cycle profile (G2/M),CAL-27 cells [12],accumulating in G2/M
same,"Mean Diff. Control vs. treatment + IR (Tukey's multiple comparisons, tumour volume)","CAL-27 tumour xenografts; day 35, + IR 3 Gy on days 1 and 2",246.7
same,"Mean Diff. Control vs. treatment (Tukey's multiple comparisons, tumour volume)","CAL-27 tumour xenografts; day 35, no IR",272
same,concentration level effective as radiosensitizer,[13],single nM level

# Reference: paper PMC5059467, “Anti-tubulin drugs conjugated to anti-ErbB antibodies selectively radiosensitize” (Nature Communications, 2016)
